Measured values as given in patent US8410289B2, “Spirocyclic 3'-alkoxytetramic acids and-tetronic acids” (Bayer Cropscience AG, priority 2004, dated 2013).

test: log P determination by HPLC on reverse-phase column (C 18), EEC-Directive 79/831 Annex V.A8; type: physicochemical; details: HPLC reverse-phase C 18, acidic range pH 2.3, 43° C.
Experimental: • The log P values given in the tables and preparation examples above are determined in accordance with EEC-Directive 79/831 Annex V.A8 by HPLC (High Performance Liquid Chromatography) on a reverse-phase column (C 18). Temperature: 43° C.
The determination is carried out in the acidic range at pH 2.3 using the mobile phases 0.1% aqueous phosphoric acid and acetonitrile; linear gradient from 10% acetonitrile to 95% acetonitrile.
The LC-MS determination in the acidic range is carried out at pH 2.7 using the mobile phases 0.1% aqueous formic acid and acetonitrile (contains 0.1% formic acid); linear gradient from […] acetonitrile to 95% acetonitrile.
The LC-MS determination in the neutral range is carried out at pH 7.8 using the mobile phases 0.001 molar aqueous ammonium bicarbonate solution and acetonitrile; linear gradient from 10% acetonitrile to 95% acetonitrile.
The calibration is carried out using unbranched alkan-2-ones (with 3 to 16 carbon atoms) with known log P values (determination of the log P values by retention times using linear interpolation between two successive alkanones).

Row | logP | SMILES
1 | 5.32 | COC1CCCC2(C1)OC(=O)C(c1cc(-c3ccc(Cl)cc3)c(C)cc1C)=C2OC(=O)OC(C)C (stereo not drawn) [Example I-2-c-2]
2 | 4.34 | COC1CCCC2(C1)OC(=O)C(c1c(C)cc(C)cc1C)=C2OC(=O)OC(C)C (stereo not drawn) [Example I-2-c-4]
3 | 4.17 | COC1CCCC2(C1)OC(=O)C(c1c(C)cc(C)cc1C)=C2OC(=O)OC(C)C (stereo not drawn) [Example I-2-c-3]
4 | 3.75 | COc1cc(C)cc(C)c1C1=C(OC(=O)OC(C)C)C2(CCCC(OC)C2)OC1=O (stereo not drawn) [Example I-2-c-5]
5 | 3.90 | COc1cc(C)cc(C)c1C1=C(OC(=O)OC(C)C)C2(CCCC(OC)C2)OC1=O (stereo not drawn) [Example I-2-c-6]

same assay, conditions: compounds of formula (I-2-a); generally isomer mixtures; those marked 1) were separated into cis and trans diastereomers

Row | logP | SMILES
6 | 4.19 | CCOC1CCCC2(C1)OC(=O)C(c1c(C)cc(-c3ccc(Cl)cc3)cc1CC)=C2O (stereo not drawn) [Example I-2-a-17]
7 | 2.16 | COC1CCCC2(C1)OC(=O)C(c1cc(C)ccc1Br)=C2O (mixture of isomers) [Example I-2-a-49]
8 | 2.37 | COC1CCCC2(C1)OC(=O)C(c1ccc(Cl)cc1C(F)(F)F)=C2O (stereo not drawn) [I-2-a-24]
9 | 2.21 | COC1CCCC2(C1)OC(=O)C(c1ccc(Cl)cc1Cl)=C2O (mixture of isomers) [Example I-2-a-39]
10 | 2.74 | CCc1cc(Br)cc(C)c1C1=C(O)C2(CCCC(OC)C2)OC1=O (stereo not drawn) [Example I-2-a-13]
11 | 3.19^1) | COC1CCCC2(C1)OC(=O)C(c1cc(-c3ccc(Cl)cc3)ccc1C)=C2O (single isomer, unassigned) [Example I-2-a-32]
12 | 3.32 | CCCCOC1CCCC2(C1)OC(=O)C(c1ccc(C)cc1C)=C2O (stereo not drawn) [I-2-a-58]
13 | 2.25 | COC1CCCC2(C1)OC(=O)C(c1ccc(Cl)cc1Br)=C2O (mixture of isomers) [Example I-2-a-36]
14 | 2.70 | COC1CCCC2(C1)OC(=O)C(c1c(Cl)cc(Br)c(C)c1Cl)=C2O (stereo not drawn) [I-2-a-53]
15 | 2.53 | COC1CCCC2(C1)OC(=O)C(c1cc(Cl)c(Br)cc1Cl)=C2O (mixture of isomers) [I-2-a-40]
16 | 2.19 | COC1CCCC2(C1)OC(=O)C(c1ccc(Cl)cc1C)=C2O (single isomer, unassigned) [Example I-2-a-6]
17 | 2.27 | COC1CCCC2(C1)OC(=O)C(c1c(Cl)cc(C)cc1Cl)=C2O (stereo not drawn) [Example I-2-a-21]
18 | 1.86 | COC1CCCC2(C1)OC(=O)C(c1ccccc1Cl)=C2O (mixture of isomers) [I-2-a-38]
19 | 2.21 | COc1ccc(C2=C(O)C3(CCCC(OC)C3)OC2=O)c(C)c1 (mixture of isomers) [Example I-2-a-50]
20 | 2.45 | COC1CCCC2(C1)OC(=O)C(c1c(C)cc(C)c(F)c1C)=C2O (stereo not drawn) [Example I-2-a-54]
21 | 1.92 | COC1CCCC2(C1)OC(=O)C(c1c(C)cccc1Cl)=C2O (stereo not drawn) [I-2-a-25]
22 | 2.62 | CCc1cc(Cl)c(C2=C(O)C3(CCCC(OC)C3)OC2=O)c(Br)c1 (stereo not drawn) [Example I-2-a-29]
23 | 3.36 | CCCCOC1CCCC2(C1)OC(=O)C(c1cc(C)ccc1C)=C2O (stereo not drawn) [I-2-a-62]
24 | 3.49 | CCCCOC1CCCC2(C1)OC(=O)C(c1c(C)cc(C)cc1Cl)=C2O (stereo not drawn) [I-2-a-60]
25 | 2.58 | COC1CCCC2(C1)OC(=O)C(c1cc(C)c(Br)cc1Br)=C2O (stereo not drawn) [Example I-2-a-18]
26 | 2.25 | COC1CCCC2(C1)OC(=O)C(c1cc(F)c(C)cc1C)=C2O (mixture of isomers) [Example I-2-a-45]
27 | 2.35 | COC1CCCC2(C1)OC(=O)C(c1cc(C)c(C)cc1Br)=C2O (stereo not drawn) [Example I-2-a-9]
28 | 2.31^1) | COC1CCCC2(C1)OC(=O)C(c1c(C)cc(C)cc1C)=C2O (single isomer, unassigned) [Example I-2-a-14]
29 | 2.11 | COC1CCCC2(C1)OC(=O)C(c1ccc(Cl)cc1C)=C2O (single isomer, unassigned) [Example I-2-a-8]
30 | 2.50 | COC1CCCC2(C1)OC(=O)C(c1c(C)cc(C)c(C)c1C)=C2O (stereo not drawn) [Example I-2-a-12]
31 | 2.13 | COC1CCCC2(C1)OC(=O)C(c1ccc(C)cc1Cl)=C2O (stereo not drawn) [Example I-2-a-22]
32 | 2.41 | COC1CCCC2(C1)OC(=O)C(c1c(C)cc(Cl)cc1Cl)=C2O (stereo not drawn) [Example I-2-a-20]

Row | logP | SMILES
33 | 3.29 | COC1CCCC2(C1)OC(=O)C(c1c(C)ccc(-c3ccc(Cl)cc3)c1C)=C2O (mixture of isomers) [Example I-2-a-42]
34 | 2.46 | COC1CCCC2(C1)OC(=O)C(c1c(C)cc(Cl)cc1Br)=C2O (mixture of isomers) [Example I-2-a-4]
35 | 2.98 | CCc1cc(Br)cc(CC)c1C1=C(O)C2(CCCC(OC)C2)OC1=O (mixture of isomers) [Example I-2-a-3]
36 | 2.47 | COC1CCCC2(C1)OC(=O)C(c1cc(C)c(Cl)cc1C)=C2O (mixture of isomers) [I-2-a-43]
37 | 2.15 | COC1CCCC2(C1)OC(=O)C(c1cc(C)ccc1C)=C2O (mixture of isomers) [Example I-2-a-35]
38 | 2.40 | COC1CCCC2(C1)OC(=O)C(c1c(C)cc(Br)cc1C)=C2O (stereo not drawn) [Example I-2-a-10]
39 | 2.10^1) | COc1cc(C)cc(C)c1C1=C(O)C2(CCCC(OC)C2)OC1=O (single isomer, unassigned) [Example I-2-a-16]
40 | 2.77 | CCc1cc(Br)cc(Br)c1C1=C(O)C2(CCCC(OC)C2)OC1=O (stereo not drawn) [Example I-2-a-26]
41 | 3.57 | CCCCOC1CCCC2(C1)OC(=O)C(c1cc(C)c(C)cc1Br)=C2O (stereo not drawn) [I-2-a-59]
42 | 2.23 | COC1CCCC2(C1)OC(=O)C(c1c(Cl)ccc(C)c1Cl)=C2O (mixture of isomers) [Example I-2-a-52]
43 | 3.03 | CCCCOC1CCCC2(C1)OC(=O)C(c1ccccc1C)=C2O (stereo not drawn) [I-2-a-57]
44 | 2.51 | COC1CCCC2(C1)OC(=O)C(c1c(Br)cc(C)cc1Br)=C2O (stereo not drawn) [I-2-a-19]
45 | 3.99 | CCCCOC1CCCC2(C1)OC(=O)C(c1c(C)cc(Br)cc1CC)=C2O (stereo not drawn) [I-2-a-63]
46 | 2.47 | COC1CCCC2(C1)OC(=O)C(c1cc(Cl)c(C)cc1Cl)=C2O (mixture of isomers) [I-2-a-48]
47 | 2.30 | COC1CCCC2(C1)OC(=O)C(c1cc(Br)ccc1C)=C2O (stereo not drawn) [I-2-a-23]
48 | 2.36 | COC1CCCC2(C1)OC(=O)C(c1c(C)cc(C)cc1Br)=C2O (stereo not drawn) [Example I-2-a-28]
49 | 3.76 | CCCCOC1CCCC2(C1)OC(=O)C(c1c(C)cc(C)c(C)c1C)=C2O (stereo not drawn) [I-2-a-61]
50 | 2.31 | COC1CCCC2(C1)OC(=O)C(c1c(C)cc(C)cc1Cl)=C2O (stereo not drawn) [Example I-2-a-27]
51 | 4.24 | CCCCOC1CCCC2(C1)OC(=O)C(c1c(CC)cc(Br)cc1CC)=C2O (stereo not drawn) [I-2-a-55]
52 | 3.4 | COC1CCCC2(C1)OC(=O)C(c1cc(-c3ccc(Cl)cc3)c(C)cc1C)=C2O (mixture of isomers) [Example I-2-a-2]
53 | 3.11 | COC1CCCC2(C1)OC(=O)C(c1cc(-c3cccc(Cl)c3)ccc1Cl)=C2O (stereo not drawn) [Example I-2-a-34]
54 | 3.16 | COC1CCCC2(C1)OC(=O)C(c1cc(-c3cccc(Cl)c3)ccc1C)=C2O (stereo not drawn) [Example I-2-a-33]
55 | 2.40 | COC1CCCC2(C1)OC(=O)C(c1c(Cl)cc(C)cc1Br)=C2O (stereo not drawn) [Example I-2-a-5]
56 | 2.42 | COC1CCCC2(C1)OC(=O)C(c1c(C)ccc(Cl)c1C)=C2O (mixture of isomers) [Example I-2-a-46]
57 | 2.70 | COC1CCCC2(C1)OC(=O)C(c1c(C)cc(C)c(Br)c1C)=C2O (mixture of isomers) [I-2-a-41]
58 | 2.27 | COC1CCCC2(C1)OC(=O)C(c1cc(Br)ccc1Br)=C2O (mixture of isomers) [I-2-a-51]

Row | SMILES | logP
59 | COC1CCCC2(C1)OC(=O)C(c1cc(-c3ccc(Cl)cc3)ccc1Cl)=C2O (stereo not drawn) [Example I-2-a-31] | 3.14
60 | COC1CCCC2(C1)OC(=O)C(c1c(C)cc(C)c(-c3ccc(Cl)cc3)c1C)=C2O (mixture of isomers) [I-2-a-30] | 3.60

same assay, conditions: compounds of formula (I-2-b); isomer (cis, trans or α + β about 1:1); two values for α + β mixtures

Row | logP | SMILES
61 | 4.32 | COC1CCCC2(C1)OC(=O)C(c1c(C)cc(C)cc1C)=C2OC(=O)C(C)C (stereo not drawn) [Example I-2-b-3]
62 | 3.75 | COc1cc(C)cc(C)c1C1=C(OC(=O)C(C)C)C2(CCCC(OC)C2)OC1=O (stereo not drawn) [Example I-2-b-6]
63 | 4.15 | COC1CCCC2(C1)OC(=O)C(c1c(C)cc(C)cc1C)=C2OC(=O)C(C)C (stereo not drawn) [Example I-2-b-4]
64 | 5.25 | COC1CCCC2(C1)OC(=O)C(c1cc(-c3ccc(Cl)cc3)c(C)cc1C)=C2OC(=O)C(C)C (stereo not drawn) [Example I-2-b-2]
65 | 3.90 | COc1cc(C)cc(C)c1C1=C(OC(=O)C(C)C)C2(CCCC(OC)C2)OC1=O (stereo not drawn) [Example I-2-b-5]

same assay, conditions: compounds of formula (II); two values where an α/β isomer mixture is given

Row | log P | SMILES
66 | log P 3.64 | CCc1cc(C)cc(Br)c1CC(=O)NC1(C(=O)OC)CCCC(OCCOC)C1 (single isomer, unassigned) [II-28]

same assay, conditions: reverse-phase HPLC column (C 18); HPLC, reverse-phase column (C 18), 43° C.

Row | chromatographic logP | SMILES
67 | 5.21 | CO[C@H]1CCC[C@@]2(C1)OC(=O)C(c1cc(-c3ccc(Cl)cc3)c(C)cc1C)=C2OC(=O)OC(C)C [Example I-2-c-1]
68 | 5.37 | CO[C@H]1CCC[C@]2(C1)OC(=O)C(c1cc(-c3ccc(Cl)cc3)c(C)cc1C)=C2OC(=O)C(C)C [Example I-2-b-1]
69 | 3.57 | CCCCOC1CCCC2(C1)OC(=O)C(c1c(C)cc(C)cc1C)=C2O (stereo not drawn) [Example I-2-a-1]
